Reference: the NIST ThermoML archive (doi:10.1021/acs.jced.6b00280)
± gives the expanded uncertainty stated by the source.

Assays:
[1] = for mass density: 298.15 K, 101.33 kPa, Pycnometric method
[2] = refractive index (Na D-line) (dimensionless); settings: 298.15 K; 101.33 kPa; Liquid; Standard Abbe refractometry

Compound: Oc1ccccc1O [1,2-benzenediol]
- mass density ([1]; Crystal): 1346 ± 2 kg/m3
- Normal melting temperature ([1]; Crystal, visual observation): 106.10 ± 1.6 °C

Compound: CCCCOC(C)=O [butyl ethanoate]
- refractive index [2]: 1.393 ± 0.0004
- mass density ([1]; Liquid): 873.1 ± 2 kg/m3

Compound: CO [methanol]
- refractive index [2]: 1.3264 ± 0.0004
- mass density ([1]; Liquid): 786.1 ± 2 kg/m3
